Measurements taken from article PMC6028563, “Probing Substituents in the 1- and 3-Position: Tetrahydropyrazino-Annelated Water-Soluble Xanthine Derivatives as Multi-Target Drugs With Potent Adenosine Receptor Antagonistic Activity” (Frontiers in Chemistry, 2018).

Assays:
human A1 AR = target: T1, human A1 AR (Homo sapiens, UniProt P30542); assay: Radioligand binding assay at human A1 AR vs. [^3H]CCPA; conditions: human (h); CHO cell membranes; n = 3
T1 construct: expressed in transfected cells; host or cells: CHO cells
T1 sequence (P30542 1-326): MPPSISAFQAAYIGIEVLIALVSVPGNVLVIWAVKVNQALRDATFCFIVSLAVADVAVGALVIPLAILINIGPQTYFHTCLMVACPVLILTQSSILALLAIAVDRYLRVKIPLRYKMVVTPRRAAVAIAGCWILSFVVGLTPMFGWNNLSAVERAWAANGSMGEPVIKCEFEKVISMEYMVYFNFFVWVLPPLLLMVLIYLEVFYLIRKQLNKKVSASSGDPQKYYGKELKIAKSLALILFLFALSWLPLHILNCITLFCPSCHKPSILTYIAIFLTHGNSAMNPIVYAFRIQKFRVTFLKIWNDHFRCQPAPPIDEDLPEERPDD
Description: (§1) Membrane preparations and radioligand binding assays at rat A1 (rat brain cortex) and rat A2A ARs (rat brain striatum) were performed as previously described (Ozola et al., [2003]; Alnouri et al., [2015]). For assays at human A1, A2A, A2B, and A3 ARs, CHO cell membranes expressing one of the human AR subtypes were used as previously reported (Klotz et al., [1998]; Alnouri et al., [2015]; De Filippo et al., [2016]).
(§2) The synthesized tetrahydropyrazino[2,1-f ]purinediones 13–20 were evaluated in radioligand binding assays for their affinity to A1 ARs of rat brain cortical membrane and to A2A ARs of rat brain striatal membrane preparations. Selected compounds were further investigated for their affinity to human A1 and A2A ARs recombinantly expressed in Chinese hamster ovary (CHO) cells. All compounds were additionally investigated for their affinity to human A2B and A3 ARs recombinantly expressed in CHO cells to determine their AR subtype selectivity. […] It is well known that all xanthine derivatives lacking a ribose moiety, including tricyclic compounds, can only block ARs, but never act as AR agonists; therefore, additional functional studies were not required. […] Potent MAO-B inhibitors were additionally investigated for inhibition of human MAO-A to assess their selectivity. Results are presented in Tables 1–6, and data of standard ligands are included for comparison.

rat A1 AR = target: T2, rat A1 AR (Rattus norvegicus, UniProt P25099); assay: Radioligand binding assay at rat A1 AR (rat brain cortex) vs. [^3H]CCPA; conditions: rat (r); rat brain cortex; n = 3
T2 construct: A1 ARs of rat brain cortical membrane; from tissue; host or cells: rat brain cortex membranes
T2 sequence (P25099 1-326): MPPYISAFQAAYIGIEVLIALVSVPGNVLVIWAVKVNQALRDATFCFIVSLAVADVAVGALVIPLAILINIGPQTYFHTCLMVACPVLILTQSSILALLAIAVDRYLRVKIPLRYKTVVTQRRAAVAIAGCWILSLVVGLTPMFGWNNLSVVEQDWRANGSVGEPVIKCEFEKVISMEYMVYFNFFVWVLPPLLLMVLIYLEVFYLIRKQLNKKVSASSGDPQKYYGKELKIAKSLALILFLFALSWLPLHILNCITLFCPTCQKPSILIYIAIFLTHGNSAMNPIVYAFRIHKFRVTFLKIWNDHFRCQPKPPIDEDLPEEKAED
Description: as §1, §2

human A2A AR = target: T3, human A2A AR (Homo sapiens, UniProt P29274); assay: Radioligand binding assay at human A2A AR vs. [^3H]MSX-2; conditions: CHO cell membranes, n = 3, read-out: Ki ± SEM, A2A vs. [^3H]MSX-2
T3 construct: expressed in transfected cells; host or cells: CHO cells
Description: as §1, §2

rat A2A AR = target: T4, rat A2A AR (Rattus norvegicus, UniProt P30543); assay: Radioligand binding assay at rat A2A AR (rat brain striatum) vs. [^3H]MSX-2; conditions: rat (r); for Ki: rat brain striatum, n = 3, read-out: Ki ± SEM, A2A vs. [^3H]MSX-2
T4 construct: A2A ARs of rat brain striatal membrane preparations; from tissue; host or cells: rat brain striatum membranes
Description: as §1, §2

human A2B AR = target: T5, human A2B AR (Homo sapiens, UniProt P29275); assay: Radioligand binding assay at human A2B AR vs. [^3H]PSB-603; conditions: for Ki: CHO cell membranes, n = 2 (n = 3 where marked a), read-out: Ki ± SEM, A2B vs. [^3H]PSB-603; for inhibition at 1 µM: at 1,000 nM, read-out: % inhibition of radioligand binding at indicated concentration, A2B vs. [^3H]PSB-603
T5 construct: expressed in transfected cells; host or cells: CHO cells
T5 sequence (P29275 1-332): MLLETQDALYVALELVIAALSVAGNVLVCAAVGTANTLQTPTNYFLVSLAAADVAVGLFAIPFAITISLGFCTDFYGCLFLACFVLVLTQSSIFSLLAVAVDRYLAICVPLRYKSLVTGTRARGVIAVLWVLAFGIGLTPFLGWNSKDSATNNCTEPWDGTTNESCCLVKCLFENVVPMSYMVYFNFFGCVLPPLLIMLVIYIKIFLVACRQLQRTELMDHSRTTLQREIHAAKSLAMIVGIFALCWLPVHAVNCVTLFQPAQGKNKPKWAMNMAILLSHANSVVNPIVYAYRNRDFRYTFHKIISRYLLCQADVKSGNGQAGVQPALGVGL
Description: as §1, §2

human A3 AR = target: T6, human A3 AR (Homo sapiens, UniProt P0DMS8); assay: Radioligand binding assay at human A3 AR vs. [^3H]PSB-11; conditions: for Ki: CHO cell membranes, n = 2 (n = 3 where marked a), read-out: Ki ± SEM, A3 vs. [^3H]PSB-11; for inhibition at 10 µM: at 10,000 nM
T6 construct: expressed in transfected cells; host or cells: CHO cells
T6 sequence (P0DMS8 1-318): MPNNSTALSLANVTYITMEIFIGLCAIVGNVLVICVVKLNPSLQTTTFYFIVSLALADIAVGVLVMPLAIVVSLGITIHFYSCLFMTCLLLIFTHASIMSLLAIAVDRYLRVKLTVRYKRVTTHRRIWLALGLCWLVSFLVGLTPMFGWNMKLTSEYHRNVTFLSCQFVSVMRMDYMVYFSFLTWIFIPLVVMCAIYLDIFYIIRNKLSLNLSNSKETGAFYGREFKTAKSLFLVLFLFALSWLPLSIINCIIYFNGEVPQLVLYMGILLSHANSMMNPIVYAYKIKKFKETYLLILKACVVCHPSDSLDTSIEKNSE
Description: as §1, §2

recombinant human MAO-B = target: T7, recombinant human MAO-B (Homo sapiens, UniProt P27338); assay: Monoamine oxidase assay (Amplex Red), MAO-B; type: biochemical; conditions: for inhibition at 10 µM: at 10,000 nM (10 μM), read-out: % inhibition at indicated concentration, Human MAO-B; for IC50: n = 3, read-out: IC50 ± SEM, Human MAO-B
T7 construct: purchased Sigma-Aldrich M7441; host or cells: baculovirus-infected insect cells
T7 sequence (P27338 1-520): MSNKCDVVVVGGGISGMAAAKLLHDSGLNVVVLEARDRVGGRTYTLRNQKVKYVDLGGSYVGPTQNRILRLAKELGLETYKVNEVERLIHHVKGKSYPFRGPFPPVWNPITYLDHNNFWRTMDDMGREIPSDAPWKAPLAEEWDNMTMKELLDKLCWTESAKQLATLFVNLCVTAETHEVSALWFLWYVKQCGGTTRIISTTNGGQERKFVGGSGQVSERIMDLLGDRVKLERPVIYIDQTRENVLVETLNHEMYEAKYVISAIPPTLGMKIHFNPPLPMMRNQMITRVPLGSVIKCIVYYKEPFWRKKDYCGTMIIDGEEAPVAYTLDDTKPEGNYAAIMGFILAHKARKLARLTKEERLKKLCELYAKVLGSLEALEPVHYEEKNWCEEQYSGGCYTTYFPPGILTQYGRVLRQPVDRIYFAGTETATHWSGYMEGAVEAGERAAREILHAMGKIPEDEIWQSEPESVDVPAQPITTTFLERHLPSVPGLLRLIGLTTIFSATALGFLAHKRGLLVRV
Description: (§3) The determination of MAO-A and MAO-B inhibition was performed using commercially available recombinant human MAO-A and MAO-B enzymes expressed in baculovirus-infected insects sells (Sigma-Aldrich, M7316 and M7441) applying the commercially available Amplex® Red monoamine oxidase assay kit (Invitrogen A12214). The assays were performed as previously described. The determination of rat MAO-B inhibition was performed using mitochondrial-enriched fractions from male Sprague Dawley rat livers. […]

recombinant human MAO-A = target: T8, recombinant human MAO-A (Homo sapiens, UniProt P21397); assay: Monoamine oxidase assay (Amplex Red), MAO-A; type: biochemical; conditions: for inhibition at 10 µM: at 10,000 nM, read-out: % inhibition at indicated concentration, Human MAO-A; for IC50: n = 3, read-out: IC50 ± SEM, Human MAO-A
T8 construct: purchased Sigma-Aldrich M7316; host or cells: baculovirus-infected insect cells
T8 sequence (P21397 1-527): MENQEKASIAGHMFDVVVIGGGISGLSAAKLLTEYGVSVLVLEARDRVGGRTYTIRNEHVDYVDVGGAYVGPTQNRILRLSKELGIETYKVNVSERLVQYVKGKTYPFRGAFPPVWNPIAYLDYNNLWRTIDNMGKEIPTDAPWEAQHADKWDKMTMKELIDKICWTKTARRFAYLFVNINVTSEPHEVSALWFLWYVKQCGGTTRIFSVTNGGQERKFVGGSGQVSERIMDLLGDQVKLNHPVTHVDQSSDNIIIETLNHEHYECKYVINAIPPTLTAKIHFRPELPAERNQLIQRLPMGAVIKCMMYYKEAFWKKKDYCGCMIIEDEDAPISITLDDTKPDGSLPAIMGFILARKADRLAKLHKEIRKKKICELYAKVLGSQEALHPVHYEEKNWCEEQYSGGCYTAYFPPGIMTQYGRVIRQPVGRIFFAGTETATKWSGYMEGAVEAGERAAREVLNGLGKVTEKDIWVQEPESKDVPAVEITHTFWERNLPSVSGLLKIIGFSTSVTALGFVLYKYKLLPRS
Description: as §3

[1] = read-out: % inhibition of radioligand binding at indicated concentration, A3 vs. [^3H]PSB-11

T4 sequence (P30543 whole entry): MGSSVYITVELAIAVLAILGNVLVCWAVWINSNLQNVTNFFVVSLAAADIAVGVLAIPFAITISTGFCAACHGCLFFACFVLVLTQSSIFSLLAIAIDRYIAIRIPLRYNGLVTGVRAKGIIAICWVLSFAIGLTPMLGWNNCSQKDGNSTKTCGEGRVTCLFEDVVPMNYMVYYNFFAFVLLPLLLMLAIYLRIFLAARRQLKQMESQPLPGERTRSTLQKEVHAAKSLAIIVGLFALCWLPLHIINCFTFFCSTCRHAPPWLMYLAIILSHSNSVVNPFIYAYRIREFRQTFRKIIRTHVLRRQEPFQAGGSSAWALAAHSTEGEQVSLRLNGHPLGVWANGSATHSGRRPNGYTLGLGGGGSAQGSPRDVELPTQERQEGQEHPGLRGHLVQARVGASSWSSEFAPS
T3 sequence (P29274 whole entry): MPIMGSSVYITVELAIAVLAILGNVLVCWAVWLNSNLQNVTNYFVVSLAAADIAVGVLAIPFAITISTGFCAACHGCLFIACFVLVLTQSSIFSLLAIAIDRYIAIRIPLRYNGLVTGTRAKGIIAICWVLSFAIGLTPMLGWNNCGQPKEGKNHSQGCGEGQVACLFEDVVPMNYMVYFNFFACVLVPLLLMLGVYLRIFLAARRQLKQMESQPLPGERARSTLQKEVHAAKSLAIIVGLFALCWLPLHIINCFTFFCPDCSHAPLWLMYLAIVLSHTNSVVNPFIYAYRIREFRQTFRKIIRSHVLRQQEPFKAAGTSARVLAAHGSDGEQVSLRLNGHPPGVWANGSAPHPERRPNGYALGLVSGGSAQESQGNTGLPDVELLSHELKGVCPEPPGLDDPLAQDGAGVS

Row | Ki (human A1 AR) | Ki (rat A1 AR) | Ki (human A2A AR) | Ki (rat A2A AR) | Ki (human A2B AR) | inhibition at 1 µM (human A2B AR) | Ki (human A3 AR) | inhibition at 10 µM (recombinant human MAO-B) | IC50 (recombinant human MAO-B) | inhibition at 10 µM (human A3 AR; [1]) | inhibition at 10 µM (recombinant human MAO-A) | IC50 (recombinant human MAO-A) | % inhibition of radioligand binding at indicated concentration, A2A vs. [^3H]MSX-2 (rat A2A AR; at 1,000 nM) | inhibition at 1 µM (human A3 AR; at 1,000 nM, read-out: % inhibition of radioligand binding at indicated concentration, A3 vs. [^3H]PSB-11) | SMILES
1 | 210 ± 90 nM | 32.7 ± 5.8 nM | 311 ± 106 nM | 1200 nM | > 1000 nM | 18% | 7.64 µM | 27% | > 10 µM | – | – | – | – | – | C#CCn1c(=O)c2c(nc3n2CCN(Cc2ccccc2OC)C3)n(CC)c1=O [Compound 20f, 1-ethyl-8-(2-methoxybenzyl)-3-propargyl-6,7,8,9-tetrahydropyrazino[2,1-f]purine-2,4(1H,3H)-dione]
2 | 124 ± 90 nM | 118 ± 22 nM | 542 ± 169 nM | 769 ± 77 nM | > 1000 nM | 22% | > 10 µM | 41% | > 10 µM | 40% | – | – | – | – | C#CCn1c(=O)c2c(nc3n2CCN(Cc2cccc(OC)c2)C3)n(CC)c1=O [Compound 20g, 1-ethyl-8-(3-methoxybenzyl)-3-propargyl-6,7,8,9-tetrahydropyrazino[2,1-f]purine-2,4(1H,3H)-dione]
3 | 180 ± 28 nM | 118 ± 28 nM | 282 ± 38 nM | 245 ± 39 nM | > 1000 nM | 2% | > 10 µM | 20% | > 10 µM | 35% | – | – | – | – | C#CCn1c(=O)c2c(nc3n2CCN(Cc2ccccc2)C3)n(CC)c1=O [Compound 20e, 8-benzyl-1-ethyl-3-propargyl-6,7,8,9-tetrahydropyrazino[2,1-f]purine-2,4(1H,3H)-dione]
4 | 298 ± 52 nM | 36.2 ± 9.9 nM | – | 981 ± 116 nM | > 1000 nM | 1% | 15.6 µM | – | 3.74 µM | – | 19% | > 10 µM | – | – | CCn1c(=O)c2c(nc3n2CCN(Cc2cc(F)cc(Cl)c2)C3)n(C)c1=O [Compound 14n, 8-(3-chloro-5-fluorobenzyl)-3-ethyl-1-methyl-6,7,8,9-tetrahydropyrazino[2,1-f]purine-2,4(1H,3H)-dione]
5 | 156 ± 5 nM | 32 ± 0.9 nM | – | 2000 nM | > 1000 nM | 12% | 7.82 µM | 22% | > 10 µM | – | – | – | – | – | CCn1c(=O)c2c(nc3n2CCN(Cc2ccccc2F)C3)n(CC)c1=O [Compound 15a, 1,3-diethyl-8-(2-fluorobenzyl)-6,7,8,9-tetrahydropyrazino[2,1-f]purine-2,4(1H,3H)-dione]
6 | 129 ± 22 nM | 588 ± 28 nM | – | > 1000 nM | > 1000 nM | 32% | 7.18 µM | 67% | – | – | 6% | – | 40% | – | CCn1c(=O)c2c(nc3n2CCN(Cc2ccc(Cl)c(C(F)(F)F)c2)C3)n(CC)c1=O [Compound 15p, 8-(4-chloro-3-(trifluoromethyl)benzyl)-1,3-diethyl-6,7,8,9-tetrahydropyrazino[2,1-f]purine-2,4(1H,3H)-dione]
7 | – | 54 ± 9.1 nM | 4420 nM | 1140 nM | > 1000 nM | 39% | > 1 µM | – | 6.51 µM | – | 25% | > 10 µM | – | 12% | CCn1c(=O)c2c(nc3n2CCN(Cc2ccc(Br)cc2)C3)n(CC)c1=O [Compound 15e, 8-(4-bromobenzyl)-1,3-diethyl-6,7,8,9-tetrahydropyrazino[2,1-f]purine-2,4(1H,3H)-dione]
